One molecule from US20090221547A1, “Immunosuppressant Compounds and Compositions” (IRM LLC, priority 2005, published 2009) can be followed below.

For assay [1], the system named is peripheral blood lymphocytes. As to the kind of experiment: Blood lymphocyte depletion, measurement of circulating lymphocytes. Format: in vivo. The conditions noted are these: Rattus norvegicus, Lewis rats, oral gavage 0.01-5 mg/kg, blood 6 and 48 hours after administration, read-out: ED50, effective dose required displaying 50% of blood lymphocyte depletion. The procedure: C. In vivo: Screening Assays for Measurement of Blood Lymphocyte Depletion
Measurements of circulating lymphocytes: Compounds are dissolved in DMSO and PEG300 and diluted to obtain a final concentration of 2% DMSO and 2% PEG300 (v/v, final concentration). Lewis rats are administered compound solution orally by gavages at 0.01-5 mg/kg under short isoflurane anesthesia.
Blood is collected from the retro-orbital sinus 6 and 48 hours after drug administration under short isoflurane anesthesia. Whole blood samples are subjected to hematology analysis. Peripheral lymphocyte counts are determined using an automated analyzer. Subpopulations of peripheral blood lymphocytes are stained by fluorochrome-conjugated specific antibodies and analyzed using a fluorescent activating cell sorter (Facscalibur). Two to three rats are used to assess the lymphocyte depletion activity of each compound screened. The result is an ED50, which is defined as the effective dose required displaying 50% of blood lymphocyte depletion.

The subject of assay [2] is EDG-3, EDG-5, EDG-6 and EDG-8. As to the kind of experiment: EDG-3, -5, -6 and -8 GTP [γ-35S] binding assays (SPA), CHO or RH7777 membranes. Format: biochemical, human. The source says:
(§1) A. In vitro: A scintillation proximity assay (SPA) for measuring GTP [γ-^35S] binding to membranes prepared from CHO cells expressing human EDG/S1P receptors.
EC50 values are obtained by fitting the GTP [γ-^35S] binding curves (raw data) with the dose response curve-fitting tool of ORIGIN V. 6.1. Basal binding (no compound) and the highest stimulation of GTP [γ-^35S] binding achieved by an agonist are used as the fitting range. Seven different concentrations are used to generate a concentration response curve (using two or three data points per concentration).
Concentrations of EDG receptor expressing membranes range between 13-19 μg per well. […] For example, 5-[4-(2′-fluoro-2-trifluoromethyl-biphenyl-4-yloxymethyl)-phenyl]-pyridine-2-carboxylic acid has an EC50 of 0.9 nM in the above assay and is at least 500 fold selective for EDG-1 compared to one or more of the other receptors including EDG-3, EDG-5, EDG-6 and EDG-8.

In the next assay the target is T1, human EDG-1 (Homo sapiens, UniProt P21453).
T1 construct: c-myc (N); expressed in transfected cells; host or cells: CHO cell clones (membrane preparation)
T1 sequence (P21453 whole entry): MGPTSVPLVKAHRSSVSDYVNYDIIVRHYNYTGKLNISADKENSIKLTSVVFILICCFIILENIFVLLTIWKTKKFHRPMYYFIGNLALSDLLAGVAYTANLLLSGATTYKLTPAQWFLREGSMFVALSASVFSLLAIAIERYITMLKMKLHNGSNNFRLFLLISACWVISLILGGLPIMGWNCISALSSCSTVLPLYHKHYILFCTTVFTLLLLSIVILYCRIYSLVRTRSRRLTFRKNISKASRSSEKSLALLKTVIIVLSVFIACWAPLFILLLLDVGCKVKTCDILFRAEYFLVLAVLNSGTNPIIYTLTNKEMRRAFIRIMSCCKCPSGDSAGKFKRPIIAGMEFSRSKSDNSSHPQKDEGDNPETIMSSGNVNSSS
As to the kind of experiment: EDG-1 (S1P1) GTP [γ-35S] binding assay (SPA), membranes of CHO cells. It counts as biochemical. Conditions: membranes from CHO cells expressing human EDG-1. The procedure:
as §1
EDG-1 (S1P1) GTP [γ-^35S] binding assay: Membrane protein suspensions are prepared from CHO cell clones stably expressing a human EDG-1 N-terminal c-myc tag. Solutions of test compounds ranging from 10 mM to 0.0 nM are prepared in DMSO/50 mM HCl and then diluted into assay buffer (20 mM HEPES, pH7.4, 100 mM NaCl, 10 mM MgCl2, 0.1% fat free BSA). Assay buffer-containing […] is mixed with wheat-germ agglutinin-coated SPA-beads (1 mg/well) followed by the addition of human EDG-1 membrane protein suspension (10 μg/well) and test compound. The bead/membrane/compound assay components are then mixed for 10-15 minutes on a shaker at room temperature. GTP [γ-^35S] (200 pM) and bead/membrane/compound assay mixture are added to individual wells of a 96 well Optiplate™ (final volume 225 μl/well), sealed and incubated at room temperature for 110 to 120 minutes under constant shaking. After centrifugation (2000 rpm, 10 minutes) luminescence is measured with a TopCount™ instrument.
EC50 values are obtained by fitting the GTP [γ-^35S] binding curves (raw data) with the dose response curve-fitting tool of ORIGIN V. 6.1. […]

The ED50 is the midpoint of the dose-response relation. The term EC50 denotes the concentration at which the effect is half-maximal. For `O=C(O)c1ccc(-c2ccc(COc3ccc(-c4ccccc4F)c(C(F)(F)F)c3)cc2)cn1` [Example 1, 5-[4-(2′-Fluoro-2-trifluoromethyl-biphenyl-4-yloxymethyl)-phenyl]-pyridine-2-carboxylic acid], the ED50 in assay [1] was 0.3 mg/kg. Further, the “fold selective for EDG-1 compared to one or more of the other receptors including EDG-3, EDG-5, EDG-6 and EDG-8” value in assay [2] was “at least 500 fold”. The molecule also gave an EC50 at human EDG-1 of 0.9 nM.
